Two compounds from US11149062B2, “HDAC inhibitors and methods of treatment using the same” (UWM Research Foundation, Inc., priority 2015, dated 2021) can be followed below.

SMILES strings stand for the structures.

The test system of one data set is SKOV-3 (ovarian). As to the kind of experiment: MTT antiproliferative assay, SKOV-3. The class given is cell-based. The settings on record: Homo sapiens, SK-OV-3; MTT, 48 h; read-out: Antiproliferative Activity GI50, Ovarian SKOV-3. The procedure: (§1) Briefly, the tumor cells (1×10^4 cells/well) were seeded in 96-well microtiter plates and incubated for 24 h at 37° C. Following incubation, the media was replaced with fresh media containing the above compounds at concentrations ranging from 1 μM to 1 pM diluted in DMSO and incubated for an additional 48 h. Drugs were run in duplicate or triplicate and control cells received fresh media with DMSO concentration equivalent to the treatment groups. […] After aspirating the culture medium, 200 μL of DMSO was added to dissolve the precipitate and the resulting solution was measured for absorbance at 570 nm with a reference wavelength of 690 nm using a microplate reader (Infinite M200 Pro TECAN).
A general note: Tetrazolium assays rely on reduction of a dye to a coloured formazan, in cell work by metabolically active cells.

The test system of a further data set is DU-145 (prostate cancer). The data set can be described thus: MTT antiproliferative assay, DU-145. To be noted: Homo sapiens, DU-145; MTT, 48 h; read-out: Antiproliferative Activity GI50, Prostate DU-145. The class given is cell-based. As for the experimental part:
as §1

Data set [1] has as its system colon (HCT-116), cervical (HeLa), and renal (RFX393) tumor cell lines. The data set can be described thus: MTT antiproliferative assay, all three tumor cell lines. Type of data set: cell-based. The settings on record: HCT-116, HeLa, RFX393; summary of Table 3; read-out: GI50 values against all three tumor cell lines. The procedure:
as §1

The target in another data set is T1, Recombinant human HDAC3 (Homo sapiens, UniProt O15379).
T1 construct: purchased BPS Bioscience Inc
The data set can be described thus: HDAC-Glo I/II assay, HDAC3. Type of data set: biochemical. To be noted: Class I HDAC; compounds reduced by TCEP prior to assay. The procedure:
(§2) The purified compounds of all fragments and natural product derivatives were evaluated for inhibitory effects on three different classes of HDAC proteins (class I, IIa, and IIb). […] All activity was determined by using a fluorescence-based in vitro assay. Class I HDAC proteins that were evaluated were HDAC1, HDAC2, HDAC3, HDAC8, HDAC4, and HDAC6. Class IIa HDAC protein were HDAC4 and the Class IIb HDAC protein were HDAC6.
(§3) HDAC-Glo™ I/II Assay and Screening System (Promega) was used to determine the HDAC inhibitory activity. Recombinant human HDAC1, HDAC2, HDAC3, HDAC4, HDAC6 and HDAC8 were purchased from BPS Bioscience Inc. The inhibitory activities of the test compounds against recombinant HDAC were performed according to reagent suppliers' protocols.
(§4) All test compounds were firstly dissolved in DMSO to make 10 mM stock solution. A certain amount of stock solution was diluted to 1 mM by DMSO and then reduced by tris(2-carboxyethyl)phosphine hydrochloride (TCEP) in a molar ration of 1:1.5 for 20 min at ambient temperature prior to being assayed. After reduction, a series of fivefold dilutions of each reduced compound were prepared with HDAC-Glo buffer and 25 μL of each dilution was added into a well on a 96-well plate. HDAC enzymes were diluted to the desired concentrations with HDAC-Glo buffer and 25 μL of each diluted enzyme was dispensed into a well to mix with 25 μL of testing compound at room temperature for 30-60 seconds. After the reaction mixture had been incubated at room temperature for 1 hour, 50 μL of HDAC-Glo reagent was added to each reaction well and mixed up for 30-60 seconds. Finally, the plate was incubated at room temperature for an additional 30 minutes before the luminescence was measured on a Synergy HT plate reader (Bio-Tek). The luminescence intensity data were analyzed using GraphPad Prism 5 (GraphPad Software). In the absence of any test compound, the luminescence intensity (I100) in each data set was defined as 100% activity. In the absence of both of HDAC enzymes and test compound, the luminescence intensity (I0) in each data set was defined as 0% activity. The relative activity (%) in the presence of each compound was calculated according to the following equation: % activity=(I−I0)/(I100−I0), where I=the luminescence intensity if a compound is present in the reaction. Experiments were performed in triplicate and the calculated mean values were used for plotting.

The subject of another data set is BALB/c mice. The data set can be described thus: in vivo. To be noted: BALB/c, mouse, in vivo, ip, 2 weeks.
Another data set addresses T2, Recombinant human HDAC1 (Homo sapiens, UniProt Q13547).
T2 construct: purchased BPS Bioscience Inc
As to the kind of experiment: HDAC-Glo I/II assay, HDAC1. The class given is biochemical. The settings on record: for IC50: Class I HDAC, compounds reduced by TCEP prior to assay, read-out: IC50 of HDAC1; for Class I selectivity Ratio HDAC 1/HDAC8: ratio of IC50 values. As for the experimental part: as §2, §3, §4

The conditions of data set [2]: 10 mg/mL cpd in 20% DMSO/saline.
The test system of the next data set is HeLa (cervical cancer). As to the kind of experiment: MTT antiproliferative assay, HeLa. The class given is cell-based. The settings on record: Homo sapiens, MTT, 48 h, read-out: Antiproliferative Activity GI50, Cervical HeLa. As for the experimental part:
as §1

The subject of a further data set is COLO-205 (colon cancer). As to the kind of experiment: MTT antiproliferative assay, COLO-205. The class given is cell-based. The settings on record: Homo sapiens, COLO 205; MTT, 48 h; read-out: Antiproliferative Activity GI50, Colon COLO-205. As for the experimental part: as §1
For data set [3], the system named is MDA-MB-231 (breast cancer). The data set can be described thus: MTT antiproliferative assay, MDA-MB-231. The class given is cell-based. To be noted: Homo sapiens, MDA-MB-231; MTT, 48 h; read-out: Antiproliferative Activity GI50, Breast MDA-MB-231. The procedure: as §1

T2 sequence (Q13547 whole entry): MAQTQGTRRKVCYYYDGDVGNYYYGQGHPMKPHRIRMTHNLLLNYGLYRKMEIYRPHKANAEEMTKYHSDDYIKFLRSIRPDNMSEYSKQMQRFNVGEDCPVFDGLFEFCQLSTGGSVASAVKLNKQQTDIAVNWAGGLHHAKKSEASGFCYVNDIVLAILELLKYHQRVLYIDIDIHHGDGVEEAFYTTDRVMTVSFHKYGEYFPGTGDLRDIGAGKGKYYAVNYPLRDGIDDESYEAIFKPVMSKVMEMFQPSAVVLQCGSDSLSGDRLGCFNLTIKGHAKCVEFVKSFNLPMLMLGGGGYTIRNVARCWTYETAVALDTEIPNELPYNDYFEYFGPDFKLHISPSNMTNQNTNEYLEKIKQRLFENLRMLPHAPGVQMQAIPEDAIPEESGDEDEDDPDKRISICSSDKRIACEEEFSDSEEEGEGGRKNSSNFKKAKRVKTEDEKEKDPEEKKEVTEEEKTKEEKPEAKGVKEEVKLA
T1 sequence (O15379 whole entry): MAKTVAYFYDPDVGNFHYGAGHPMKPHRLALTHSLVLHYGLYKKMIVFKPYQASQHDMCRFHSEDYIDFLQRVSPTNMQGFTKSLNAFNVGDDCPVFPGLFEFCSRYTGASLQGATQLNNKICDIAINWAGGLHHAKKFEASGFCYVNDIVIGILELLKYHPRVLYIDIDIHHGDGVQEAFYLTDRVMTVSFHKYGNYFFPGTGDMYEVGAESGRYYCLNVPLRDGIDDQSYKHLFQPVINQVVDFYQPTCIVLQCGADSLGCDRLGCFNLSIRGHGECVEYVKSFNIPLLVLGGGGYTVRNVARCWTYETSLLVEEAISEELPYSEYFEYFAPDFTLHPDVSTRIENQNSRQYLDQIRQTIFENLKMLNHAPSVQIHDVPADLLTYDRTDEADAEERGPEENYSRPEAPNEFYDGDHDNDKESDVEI
T1 sequence (Q9Y618 395-489 partner limits assumed): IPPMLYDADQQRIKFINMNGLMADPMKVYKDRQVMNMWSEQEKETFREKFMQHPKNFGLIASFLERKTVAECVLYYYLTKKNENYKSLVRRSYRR

For `COC(=O)[C@H]1CSSCC/C=C/C(O)CC(=O)N[C@H](CCSC)C(=O)N1` (stereo partly drawn) [TDF3m, Methyl (4S,7R,12E)-11-hydroxy-7-[2-(methylsulfanyl)ethyl]-6,9-dioxo-1,2-dithia-5,8-diazacyclopentadec-12-ene-4-carboxylate], the GI50 – broadly, the concentration that inhibits growth by half – came to 500 nM in the data set with SKOV-3 (ovarian); 300 nM with DU-145 (prostate cancer); 400 nM in data set [1]; 400 nM in the data set on HeLa (cervical cancer); 900 nM in the data set on COLO-205 (colon cancer); 600 nM in [3]. Also, the results for the half-inhibitory concentration (IC50) on Recombinant human HDAC3 and at Recombinant human HDAC1 were 623 nM and 12.5 nM, respectively. The “MTD (toxicity in healthy BALB/c mice)” value with BALB/c mice was >200 mg/kg. Further, the “Class I selectivity Ratio HDAC 1/HDAC8” value on Recombinant human HDAC1 is 0.00028. Besides, the Solubility result in [2] is “Partially soluble”.

As to `CSCC[C@H]1NC(=O)CC(O)/C=C/CCSSC[C@H](C(=O)O)NC1=O` (stereo partly drawn) [TDF3, (4S,7R,12E)-11-hydroxy-7-[2-(methylsulfanyl)ethyl]-6,9-dioxo-1,2-dithia-5,8-diazacyclopentadec-12-ene-4-carboxylic acid], the GI50 (in data set [1]; in the data set with HeLa (cervical cancer)) was 600 nM in each case. For the same compound, the results for the IC50 on Recombinant human HDAC3 and on Recombinant human HDAC1 were 819 nM and 22.9 nM, respectively. Moreover, the “Class I selectivity Ratio HDAC 1/HDAC8” value on Recombinant human HDAC1 worked out at 0.00036. The Solubility result in [2] is “Soluble”.
